Reference: ChEMBL document CHEMBL3045326, “Avocadofurans and their tetrahydrofuran analogues: comparison of growth inhibitory and insecticidal activity” (2000)
Calls of active or inactive are those of the source. The calls are words filed in the database; no cut-off is given here.

Key:
Spodoptera exigua [1] = assay: Insecticidal activity against Spodoptera exigua larvae assessed as inhibition of larval growth at 5 umol/g of diet administered through compound containing diet after 7 days; assay type: functional
Spodoptera exigua [2] = assay: Insecticidal activity against Spodoptera exigua larvae assessed as induction of larval mortality at 5 umol/g of diet administered through compound containing diet after 7 days; assay type: functional, organism-based
Spodoptera exigua [3] = assay: Insecticidal activity against older Spodoptera exigua larvae assessed per ug of diet; assay type: functional
Spodoptera exigua [4] = assay: Insecticidal activity against young Spodoptera exigua larvae assessed per ug of diet; assay type: functional

CCCCCCCCCCCCCCCCCC1CCCO1 (stereo not drawn) [2-(HEPTADECYL)TETRAHYDROFURAN]
growth inhibition (GI) (Spodoptera exigua [1]): 59%

CCCCCCCCCCCCCCCC1CCCO1 (stereo not drawn) [2-PENTADECYLTETRAHYDROFURAN]
growth inhibition (GI) (Spodoptera exigua [1]): 45%

CCCCCCCCCCCCCCC1CCCO1 (stereo not drawn)
growth inhibition (GI) (Spodoptera exigua [1]): inactive

CCCCCCCCCCCCCCCCC1CCCO1 (stereo not drawn)
growth inhibition (GI) (Spodoptera exigua [1]): inactive

CCCCCCCCCCCCCCCCCCC1CCCO1 (stereo not drawn)
growth inhibition (GI) (Spodoptera exigua [1]): Active

CCCCCCCCCCCCCCCCCc1ccco1 [2-(HEPTADECYL)FURAN]
Activity (Spodoptera exigua [2]): Active
LC50 (Spodoptera exigua [3]): > 3000 nM
LC50 (Spodoptera exigua [4]): ≥ 2000 nM
growth inhibition (GI) (Spodoptera exigua [1]): 93%

CCCCCCCCCCCCCCCc1ccco1
Activity (Spodoptera exigua [2]): Active
LC50 (Spodoptera exigua [3]): > 3000 nM
LC50 (Spodoptera exigua [4]): ≥ 2000 nM
growth inhibition (GI) (Spodoptera exigua [1]): 98%
